Tested on: CIITA
Assay: NGS editing and frameshift edit of CIITA by dgRNA in HEK293 cells expressing Cas9
Assay type: cell-based, human
Conditions: HEK293 cells stably expressing Cas9, dgRNA to CIITA; for Avg. % Edit: N = 3; for Avg. % FS: frameshift edit
Experimental: Editing of CIITA with dgRNAs targeted to the CIITA gene were assayed in HEK293 cells engineered to express Cas9, as described above in Example 1.

Substance	Avg. % Edit [%]	Avg. % FS [%]
CR002973 (guide CAUCGCUGUUAAGAAGCUCC; targeting domain within dual guide RNA, chemistry not given here, further chemistry not given here; listed as Homo sapiens)	30.60	23.55
CR002974 (guide AGAAGUGGUAGAGGCACAGG; targeting domain within dual guide RNA, chemistry not given here, further chemistry not given here; listed as Homo sapiens)	8.99	6.92
CR002975 (guide UAGAAGUGGUAGAGGCACAG; targeting domain within dual guide RNA, chemistry not given here, further chemistry not given here; listed as Homo sapiens)	19.31	15.82
CR002977 (guide CAUAGAAGUGGUAGAGGCAC; targeting domain within dual guide RNA, chemistry not given here, further chemistry not given here; listed as Homo sapiens)	19.11	12.99
CR002979 (guide CUACCACUUCUAUGACCAGA; targeting domain within dual guide RNA, chemistry not given here, further chemistry not given here; listed as Homo sapiens)	28.91	23.07
CR002981 (guide CUUCUAUGACCAGAUGGACC; targeting domain within dual guide RNA, chemistry not given here, further chemistry not given here; listed as Homo sapiens)	36.28	29.98
CR002982 (guide UAUGACCAGAUGGACCUGGC; targeting domain within dual guide RNA, chemistry not given here, further chemistry not given here; listed as Homo sapiens)	10.45	9.05
CR002983 (guide CUUCUCCAGCCAGGUCCAUC; targeting domain within dual guide RNA, chemistry not given here, further chemistry not given here; listed as Homo sapiens)	35.90	33.83
CR002985 (guide CAGUUGAUGGUGUCUGUGUC; targeting domain within dual guide RNA, chemistry not given here, further chemistry not given here; listed as Homo sapiens)	32.99	29.52
CR002986 (guide GCAGUUGAUGGUGUCUGUGU; targeting domain within dual guide RNA, chemistry not given here, further chemistry not given here; listed as Homo sapiens)	1.77	1.48
CR002989 (guide CACACAACAGCCUGCUGAAC; targeting domain within dual guide RNA, chemistry not given here, further chemistry not given here; listed as Homo sapiens)	27.38	8.45
CR002996 (guide AGGUGCUUCCUCACCGAUAU; targeting domain within dual guide RNA, chemistry not given here, further chemistry not given here; listed as Homo sapiens)	23.91	17.83
CR002998 (guide GGGAGUCCUGGAAGACAUAC; targeting domain within dual guide RNA, chemistry not given here, further chemistry not given here; listed as Homo sapiens)	4.95	4.84
CR002999 (guide UGUCUUCCAGGACUCCCAGC; targeting domain within dual guide RNA, chemistry not given here, further chemistry not given here; listed as Homo sapiens)	23.50	18.58
CR003000 (guide CUUCCAGGACUCCCAGCUGG; targeting domain within dual guide RNA, chemistry not given here, further chemistry not given here; listed as Homo sapiens)	12.83	10.53
CR003002 (guide GGCCCUCCAGCUGGGAGUCC; targeting domain within dual guide RNA, chemistry not given here, further chemistry not given here; listed as Homo sapiens)	11.85	9.78
CR003003 (guide CUUGCUCAGGCCCUCCAGCU; targeting domain within dual guide RNA, chemistry not given here, further chemistry not given here; listed as Homo sapiens)	35.07	27.91

Substance	Avg. % Edit [%]	Avg. % FS [%]
CR003004 (guide CCUUGCUCAGGCCCUCCAGC; targeting domain within dual guide RNA, chemistry not given here, further chemistry not given here; listed as Homo sapiens)	19.43	15.63
CR003005 (guide CCAGCUGGAGGGCCUGAGCA; targeting domain within dual guide RNA, chemistry not given here, further chemistry not given here; listed as Homo sapiens)	21.11	18.08
CR003006 (guide UACUGAAAAUGUCCUUGCUC; targeting domain within dual guide RNA, chemistry not given here, further chemistry not given here; listed as Homo sapiens)	19.46	14.66
CR003008 (guide CUCUCACCGAUCACUUCAUC; targeting domain within dual guide RNA, chemistry not given here, further chemistry not given here; listed as Homo sapiens)	15.30	10.91
CR003010 (guide AUGGAGAUGCCAGCAGAAGU; targeting domain within dual guide RNA, chemistry not given here, further chemistry not given here; listed as Homo sapiens)	25.45	14.37
CR003012 (guide CUUUUCUGCCCAACUUCUGC; targeting domain within dual guide RNA, chemistry not given here, further chemistry not given here; listed as Homo sapiens)	10.67	7.51
CR003014 (guide GGUCUGCCGGAAGCUCCUCU; targeting domain within dual guide RNA, chemistry not given here, further chemistry not given here; listed as Homo sapiens)	32.51	26.93
CR003015 (guide AGGUCUGCCGGAAGCUCCUC; targeting domain within dual guide RNA, chemistry not given here, further chemistry not given here; listed as Homo sapiens)	27.40	24.05
CR003016 (guide UUCCGGCAGACCUGAAGCAC; targeting domain within dual guide RNA, chemistry not given here, further chemistry not given here; listed as Homo sapiens)	17.86	13.55
CR003017 (guide UUCCAGUGCUUCAGGUCUGC; targeting domain within dual guide RNA, chemistry not given here, further chemistry not given here; listed as Homo sapiens)	21.90	15.22
CR003018 (guide GAGCCCCCCACUGUGGUGAC; targeting domain within dual guide RNA, chemistry not given here, further chemistry not given here; listed as Homo sapiens)	27.72	26.54
CR003019 (guide CUGCCAGUCACCACAGUGGG; targeting domain within dual guide RNA, chemistry not given here, further chemistry not given here; listed as Homo sapiens)	11.80	9.74
CR003020 (guide ACUGCCAGUCACCACAGUGG; targeting domain within dual guide RNA, chemistry not given here, further chemistry not given here; listed as Homo sapiens)	23.67	16.44
CR003022 (guide AGACUGCCAGUCACCACAGU; targeting domain within dual guide RNA, chemistry not given here, further chemistry not given here; listed as Homo sapiens)	23.73	17.96
CR003023 (guide GAGACUGCCAGUCACCACAG; targeting domain within dual guide RNA, chemistry not given here, further chemistry not given here; listed as Homo sapiens)	29.38	16.83
CR003024 (guide GGUGACUGGCAGUCUCCUAG; targeting domain within dual guide RNA, chemistry not given here, further chemistry not given here; listed as Homo sapiens)	20.40	16.33
